The values below come from US20160222014A1, “COMPOUNDS FOR REGULATING FAK AND/OR SRC PATHWAYS” (ASANA BIOSCIENCES, LLC, priority 2013, published 2016).

As a reminder, the EC50 is the concentration giving half of the maximal effect. As usually defined, the IC50 is the point on the concentration scale where inhibition reaches its midpoint.

One data set deals with T1, Phospho Src(Y416) (Homo sapiens, UniProt P12931).
T1 construct: endogenous in cells; host or cells: Panc1
The data set is described as follows: Phospho Src(Y416) Sandwich ELISA. The data set is classed as cell-based. The settings on record: Panc1; read-out: pSrc EC50 (μM) Panc1. How it is done: E. Phospho Src(Y416) Sandwich ELISA
Phospho Src(Y416) Sandwich ELISA kit was obtained from Cell Signaling Tech.
(i) Reagent Preparation • 1. All microwell strips were brought to rt before use. • 2. 1× Wash Buffer was prepared by diluting 20× Wash Buffer (included in each PathScan® Sandwich ELISA Kit) in MilliQ® water or equivalently purified water. • 3. 1× Cell Lysis Buffer from CST #9803: 20 mM Tris (pH 7.5), 150 mM NaCl, 1 mM ethylene diamine tetraacetate (EDTA), 1 mM ethylene glycol-bis(2-aminoethyl)-N,N,N′,N′-tetraacetic acid (EGTA), 1% Triton™ X-100, 2.5 mM sodium pyrophosphate, 1 mM b-glycerophosphate, 1 mM Na3VO4, 1 μg/mL leupeptin. This buffer was stored at 4° C. for short-term use (1-2 weeks).
(ii) Preparing Cell Lysates • 1. The media was aspirated. The cells were treated by adding fresh media containing inhibitor for 1 h. The compound of Example 214 was used as reference. • 2. The cells were harvested under non-denaturing conditions by removing media and rinsing cells once with ice-cold PBS. • 3. PBS was removed, 0.5 mL ice-cold 1× Cell Lysis Buffer plus 1 mM phenylmethylsulfonylfluoride (PMSF) was added to each plate (10 cm in diameter) and the plate incubated on ice for 5 min. • 4. The cells were scraped off of the plate, transferred to an appropriate tube, and kept on ice. • 5. The lysates were sonicated on ice. • 6. Microcentrifugation was performed for 10 min at 4° C. and the supernatant transferred to a new tube. The supernatant was the cell lysate and was stored at −80° C. in single-use aliquots.
(iii) Test Procedure • 1. After the microwell strips reached rt, the required number of microwells were broken off. The microwells were placed in the strip holder. Unused microwells were resealed and stored at 4° C. immediately. • 2. 100 μL of Sample Diluent (supplied in each PathScan® Sandwich ELISA Kit, blue color) was added to a micro centrifuge tube. 100 μL of cell lysate was transferred into the tube and vortexed for a few seconds. […] Individual data sheets for each kit provided information regarding an appropriate dilution factor for lysates and kit assay results. However, dilution factors were titrated when specific cell lysates are used. • 3. 100 μL of each diluted cell lysate were added to the appropriate well. It was then sealed with tape and pressed firmly onto top of microwells. The plate was incubated for 2 h at 37° C. Alternatively, the plate was incubated overnight at 4° C., which gave the best detection of target protein. • 4. The tape was gently removed and the wells washed: • a. The plate contents were discarded into a receptacle. • b. Each well was washed 4 times with 1× Wash Buffer, 200 μL. • c. For each wash, plates were struck on fresh towels hard enough to remove the residual solution in each well, but wells were not allowed to completely dry at any time. • d. The underside of all wells was cleaned with a lint-free tissue. • 5. 100 μL of Detection Antibody (green color) was added to each well, sealed with tape and the plate incubated for 1 h at 37° C. • 6. The wash procedure was repeated as in Step 4. • 7. 100 μL of HRP-linked secondary antibody (red color) was added to each well, sealed with tape and the plate incubated plate for 30 min at 37° C. • 8. The wash procedure was repeated as in Step 4. • 9. 100 μL of TMB Substrate was added to each well, sealed with tape and the plate incubated for 10 min at 37° C. or 30 min at 25° C. • 10. 100 μL of STOP Solution was added to each well and shaken gently for a few seconds. Initial color of positive reaction was blue, which changed to yellow upon addition of STOP Solution. • 11. The results were read. • a. Visual Determination—read within 30 min after adding STOP Solution. • b. Spectrophotometric Determination—the underside of wells were wiped with a lint-free tissue and absorbance read at 450 nm within 30 min after adding STOP Solution.
(In an ELISA, binding on a coated surface is turned into a signal by an enzyme label.)

A further data set has as its target JAK2 (Homo sapiens, UniProt O60674). Briefly: JAK2 biochemical potency. The conditions noted are these: read-out: JAK2 HTRF IC50.
A further data set concerns the target T2, recombinant human FAK1 (Homo sapiens, UniProt Q05397).
T2 construct: fused on or other part: N-terminal 6xHis tag
Briefly: FAK1 HTRF assay. The data set is classed as biochemical. In short, it runs like this:
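His-tagged human FAK1 (residues 692–end, Sf9-expressed), 10 nM final, with 0.5 μM biotinylated gastrin-precursor Tyr87 peptide and a 10 μM final reagent in pH 7.4 buffer, 45 min at rt. Detection used Eu anti-pTyr antibody plus SA-APC (665/620 nm). Compounds top concentration 10 μM; IC50 from % inhibition.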
On the technique in general: Time-resolved FRET reads energy transfer from a long-lived donor to a nearby acceptor.

Another data set concerns the target T3, AURKB (Aurora B) enzyme (Homo sapiens, UniProt Q96GD4).
T3 construct: purchased Invitrogen PVR 130
Briefly: Aurora B HTRF assay. The data set is classed as biochemical. The conditions noted are these: read-out: AuroraB IC50. The procedure, abridged: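 HTRF kinase assay with 5 nM Aurora B and 50 nM ULight-PLK (Ser137) peptide, with a reagent at 30 μM final; 1 h at rt. Reaction stopped with EDTA, and phospho-peptide detected with 2 nM Eu-anti-P-PLK(Ser137) antibody after 1 h at rt, read as HTRF.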

The target of data set [1] is T4, FAK phosphorylated at Y397 in HEK-FAK cell line overexpressing human FL FAK protein (Homo sapiens, UniProt Q05397).
T4 construct: expressed in transfected cells
T4 sequence (Q05397 whole entry): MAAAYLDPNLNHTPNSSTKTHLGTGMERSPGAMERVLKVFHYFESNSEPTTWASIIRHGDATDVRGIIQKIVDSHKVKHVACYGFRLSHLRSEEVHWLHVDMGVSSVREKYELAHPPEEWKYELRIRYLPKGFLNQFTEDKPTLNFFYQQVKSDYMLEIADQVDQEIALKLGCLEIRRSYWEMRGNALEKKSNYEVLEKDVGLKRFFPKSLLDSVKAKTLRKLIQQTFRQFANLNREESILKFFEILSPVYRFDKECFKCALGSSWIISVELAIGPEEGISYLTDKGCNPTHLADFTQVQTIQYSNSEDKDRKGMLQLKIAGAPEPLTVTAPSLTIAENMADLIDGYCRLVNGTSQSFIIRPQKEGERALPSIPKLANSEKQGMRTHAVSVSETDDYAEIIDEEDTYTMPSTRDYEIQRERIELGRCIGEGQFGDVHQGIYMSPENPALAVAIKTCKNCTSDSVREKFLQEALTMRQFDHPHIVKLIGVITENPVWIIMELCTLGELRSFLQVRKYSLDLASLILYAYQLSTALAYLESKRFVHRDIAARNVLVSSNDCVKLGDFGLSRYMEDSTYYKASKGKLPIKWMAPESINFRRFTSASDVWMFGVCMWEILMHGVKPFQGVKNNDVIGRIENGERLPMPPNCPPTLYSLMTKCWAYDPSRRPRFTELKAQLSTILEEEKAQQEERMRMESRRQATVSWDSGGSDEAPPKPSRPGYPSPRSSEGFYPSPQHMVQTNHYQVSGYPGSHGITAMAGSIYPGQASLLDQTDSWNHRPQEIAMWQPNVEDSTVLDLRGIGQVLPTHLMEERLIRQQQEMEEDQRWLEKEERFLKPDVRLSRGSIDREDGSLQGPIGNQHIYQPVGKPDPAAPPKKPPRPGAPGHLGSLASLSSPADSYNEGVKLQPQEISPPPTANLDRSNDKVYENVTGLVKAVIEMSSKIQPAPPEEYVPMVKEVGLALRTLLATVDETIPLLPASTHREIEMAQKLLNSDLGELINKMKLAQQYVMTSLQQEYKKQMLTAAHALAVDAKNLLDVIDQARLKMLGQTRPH
The data set is described as follows: Cell based assay, Phospho-FAK ELISA. The conditions noted are these: HEK stb; read-out: pFAK EC50 (μM) HEK stb. In short, it runs like this: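 Stable HEK293 line overexpressing full-length human FAK, kept under 0.8 mg/mL Zeocin. In lysates, FAK Y397 autophosphorylation was measured by sandwich ELISA: total-FAK capture antibody, biotinylated pY397-specific detection antibody, streptavidin-HRP with TMB substrate.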

In data set [2] the test system is prostate and pancreatic cancer xenograft. The settings on record: prostate and pancreatic cancer xenograft models; cited from earlier work.
Data set [3] has as its system CSC population in 2 human breast cancer cell lines. The settings on record: 2 human breast cancer cell lines in vitro and in xenografts; cited from earlier work. Background: A xenograft is tissue or cells of one species grown in another, often human tumour cells in immunodeficient mice.
The test system of data set [4] is cell proliferation and apoptosis. The settings on record: cited from earlier work.
The test system of another data set is cell migration. The conditions noted are these: concomitant with inhibition of focal adhesion turnover; cited from earlier work.
In data set [5] the test system is panel of pancreatic cancer cell lines. The settings on record: read-out: anti-proliferative IC50; cited from earlier work.
For data set [6], the system named is MIA PaCa-2 human pancreatic tumor. The settings on record: oral administration, cited from earlier work.
Data set [7] concerns 4T1 orthotopic breast carcinoma. The settings on record: cited from earlier work.
Data set [8] deals with FAK autophosphorylation at Tyrosine397 and Akt phosphorylation at Serine473. The settings on record: 4T1 breast carcinoma; cited from earlier work.
The subject of data set [9] is tumor FAK Tyr-397 phosphorylation. The conditions noted are these: 100 mg/kg intraperitoneal, i.p.; cited from earlier work.
For data set [10] the following is noted: 100 mg/kg intraperitoneal, i.p.; cited from earlier work.

T1 sequence (P12931 whole entry): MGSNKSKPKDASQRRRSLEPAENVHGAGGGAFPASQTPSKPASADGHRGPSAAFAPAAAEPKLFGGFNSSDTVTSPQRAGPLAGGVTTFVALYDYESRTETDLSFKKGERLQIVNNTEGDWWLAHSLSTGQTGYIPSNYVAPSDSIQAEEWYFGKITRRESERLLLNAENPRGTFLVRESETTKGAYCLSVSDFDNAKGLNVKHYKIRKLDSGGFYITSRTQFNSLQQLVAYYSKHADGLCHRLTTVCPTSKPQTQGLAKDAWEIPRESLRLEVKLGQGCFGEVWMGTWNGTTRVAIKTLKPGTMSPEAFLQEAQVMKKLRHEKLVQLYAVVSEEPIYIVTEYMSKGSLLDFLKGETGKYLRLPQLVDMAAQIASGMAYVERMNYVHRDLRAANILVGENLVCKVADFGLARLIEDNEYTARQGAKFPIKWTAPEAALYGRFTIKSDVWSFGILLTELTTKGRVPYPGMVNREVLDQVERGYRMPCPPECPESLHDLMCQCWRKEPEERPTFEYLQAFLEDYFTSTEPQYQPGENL
Chain of JAK2 (O60674 whole entry, species assumed): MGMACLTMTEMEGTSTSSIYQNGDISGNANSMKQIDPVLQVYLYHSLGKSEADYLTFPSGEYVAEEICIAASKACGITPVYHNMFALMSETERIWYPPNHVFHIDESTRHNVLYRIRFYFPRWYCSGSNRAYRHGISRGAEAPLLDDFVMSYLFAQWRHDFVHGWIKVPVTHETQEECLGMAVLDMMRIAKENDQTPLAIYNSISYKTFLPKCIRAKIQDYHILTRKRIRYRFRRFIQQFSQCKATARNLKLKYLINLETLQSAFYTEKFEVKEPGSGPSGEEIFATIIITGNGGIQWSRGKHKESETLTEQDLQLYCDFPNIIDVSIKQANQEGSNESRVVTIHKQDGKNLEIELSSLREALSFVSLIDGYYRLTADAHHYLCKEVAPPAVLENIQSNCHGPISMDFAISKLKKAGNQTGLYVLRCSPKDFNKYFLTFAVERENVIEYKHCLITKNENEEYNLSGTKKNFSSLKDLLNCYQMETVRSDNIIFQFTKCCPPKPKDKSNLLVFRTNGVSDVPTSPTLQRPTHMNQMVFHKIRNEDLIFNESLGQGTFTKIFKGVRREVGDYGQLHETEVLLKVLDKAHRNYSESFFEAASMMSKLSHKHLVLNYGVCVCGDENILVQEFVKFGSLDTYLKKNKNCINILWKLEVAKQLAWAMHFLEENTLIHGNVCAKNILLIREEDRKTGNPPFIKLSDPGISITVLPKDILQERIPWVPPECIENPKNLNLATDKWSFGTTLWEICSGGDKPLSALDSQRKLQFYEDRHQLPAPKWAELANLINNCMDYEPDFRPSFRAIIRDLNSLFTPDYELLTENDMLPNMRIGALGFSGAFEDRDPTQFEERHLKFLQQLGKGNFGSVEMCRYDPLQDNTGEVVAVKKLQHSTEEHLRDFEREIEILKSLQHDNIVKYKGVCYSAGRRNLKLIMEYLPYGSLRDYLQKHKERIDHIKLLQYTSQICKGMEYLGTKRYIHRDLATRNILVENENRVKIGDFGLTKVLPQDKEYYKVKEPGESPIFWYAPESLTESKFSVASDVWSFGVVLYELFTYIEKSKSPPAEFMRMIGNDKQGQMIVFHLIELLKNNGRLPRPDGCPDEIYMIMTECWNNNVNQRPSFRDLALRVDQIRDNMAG
T2 sequence (Q05397 422-680 limits assumed): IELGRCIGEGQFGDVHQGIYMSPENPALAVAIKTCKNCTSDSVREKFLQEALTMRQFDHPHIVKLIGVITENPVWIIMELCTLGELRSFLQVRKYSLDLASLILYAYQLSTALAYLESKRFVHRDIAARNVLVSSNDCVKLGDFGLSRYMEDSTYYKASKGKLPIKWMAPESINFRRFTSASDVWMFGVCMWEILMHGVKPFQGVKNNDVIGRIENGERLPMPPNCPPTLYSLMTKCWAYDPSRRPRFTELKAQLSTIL
T3 sequence (Q96GD4 whole entry): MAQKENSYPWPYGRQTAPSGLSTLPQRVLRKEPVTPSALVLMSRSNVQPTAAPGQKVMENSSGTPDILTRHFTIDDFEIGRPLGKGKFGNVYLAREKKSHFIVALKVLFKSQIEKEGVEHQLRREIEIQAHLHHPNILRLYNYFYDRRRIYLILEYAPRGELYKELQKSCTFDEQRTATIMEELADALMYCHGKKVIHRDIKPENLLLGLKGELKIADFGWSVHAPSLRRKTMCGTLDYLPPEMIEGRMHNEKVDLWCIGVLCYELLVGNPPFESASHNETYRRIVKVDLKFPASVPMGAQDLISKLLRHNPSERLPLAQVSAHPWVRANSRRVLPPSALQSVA

Turning to `CC(=O)Nc1ccc(Nc2ncc3ccn(S(=O)(=O)c4cccc5cccnc45)c3n2)cc1` [Example 307], the EC50 on Phospho Src(Y416) was greater than 1 µM. Moreover, the IC50 on JAK2, on recombinant human FAK1 and at AURKB (Aurora B) enzyme was less than 20 nM each time.

On to `N#Cc1ccccc1S(=O)(=O)n1ncc2cnc(Nc3ccc(N4CCNCC4)cc3)cc21` [Example 191], for which the EC50 (on Phospho Src(Y416); in data set [1]) was greater than 1 µM in each case. Moreover, at JAK2, the IC50 was greater than 1000 nM.

As to `CN(c1ncccc1CNc1nc(Nc2ccc3c(c2)CC(=O)N3)ncc1C(F)(F)F)S(C)(=O)=O` [PF-562,271, N-methyl-N-(3-(((2-((2-oxoindolin-5-yl)amino)-5-(trifluoromethyl)pyrimidin-4-yl)amino)methyl)pyridin-2-yl)methanesulfonamide], in data set [2], the antitumor efficacy result is “good antitumor efficacy and tumor regression”; the toxicity entry was “no observed toxicity”.

For the compound `CN(c1ncccc1Cn1ccc2cnc(Nc3ccc(N4CCNCC4)c(F)c3)nc21)S(C)(=O)=O` [Example 195], the values for the EC50 (at Phospho Src(Y416); in [1]) were less than 0.02 µM and greater than 1 µM, respectively. In addition, the half-maximal inhibitory concentration (IC50) on JAK2 was less than 20 nM.

As for `CN(c1ccccc1Cn1ccc2cnc(Nc3ccc4c(c3)CC(=O)N4)nc21)S(C)(=O)=O` [Example 513], at Phospho Src(Y416), the EC50 was greater than 1 µM. For the same compound, the IC50 on JAK2, at recombinant human FAK1 and on AURKB (Aurora B) enzyme was less than 20 nM each time.

Turning to `CC(C)Cc1ccc([C@@H](C)C(=O)NS(C)(=O)=O)cc1` [Repertaxin], in data set [3], the CSC population result is “selectively depleted”.

With `CN(c1ccccc1Cn1ccc2cnc(Nc3ccc(C(=O)NCC(C)(C)O)c(F)c3)nc21)S(C)(=O)=O` [Example 508], the EC50 (on Phospho Src(Y416); in data set [1]) was greater than 1 µM throughout. Moreover, the IC50 on JAK2 is less than 20 nM.

As to `CS(=O)(=O)c1cccc(CNc2nc(Nc3ccc4c(c3)CCC(=O)N4)ncc2C(F)(F)F)c1` [PF-573,228], in [4], the “effect on cell proliferation and apoptosis” value is on record as “minimal to no effect”. Further, the “chemotactic and haptotactic migration” value in the data set with cell migration is recorded as “inhibited”.

As to `CNC(=O)c1ccccc1Nc1nc(Nc2ccc(N3CCOCC3)cc2OC)ncc1Cl` [NVP-TAE226], the IC50 in [5] is 760 nM. Besides, the body weight loss result in data set [6] (MIA PaCa-2 model) is “no body weight loss”. Moreover, the “MIA PaCa-2 human pancreatic tumor growth” value in [6] is “efficiently inhibited”. Moreover, the “4T1 murine breast tumor growth and metastasis to the lung” value in data set [7] (oral administration, dose-dependent) was “inhibited”. For the same compound, the “Inhibition of FAK autophosphorylation at Tyrosine397 and Akt phosphorylation at Serine473” value in data set [8] is recorded as “observed in a dose-dependent manner”.

For the compound `CNC(=O)c1ccccc1Nc1cc(Nc2ccc(N3CCOCC3)cc2OC)ncc1C(F)(F)F` [PND-1186], the “duration of inhibition of tumor FAK Tyr-397 phosphorylation” value in [9] is given as 12 h. Moreover, the “pharmacokinetics (PK)” value in data set [10] was “promising”. The “syngeneic murine 4T1 orthotopic breast carcinoma tumor growth and spontaneous metastasis to lungs” value in data set [7] (mouse, in vivo) was “significantly inhibited”.
